Source: patent EP1038880B1, “Androstanes and pregnanes for allosteric modulation of GABA receptor” (priority 1994, dated 1995)

How the values were obtained:
[1] = test system: Bovine Uteral Progesterone Receptors; assay: Inhibition of 3H-progesterone binding, uterus cytosol; details: competitor 10^-6M; 3H-progesterone 0.15 nM
Protocol: The data presented were obtained by performing assays in accordance with the procedures described in et al. 1988 previously to determine the effect of progesterone metabolites and their derivatives and the progestin R5020 on the binding of [^3H]R5020 to the progesterone receptor in rat uterus (Gee et al. 1988).
^3H-progesterone (0.15 nM) was incubated with the rat uterus cytosol in the presence of the test compounds. The specific binding were determined after incubation and compared to the control incubation without the compounds. The data are expressed as percent inhibition of binding.
In Table 3, rats were adrenalectomized 3 days prior to sacrifice. To isolate the mineralocorticoid receptor, brain cytosol fractions were prepared as describe in Gee, et al. 1988. The drugs were incubated with 3 nM of ^3H-aldosterone (the specific ligand for the mineralocorticoid receptor) in the presence of the selective type II agonist RU28362 (0.5 µM) which blocks ^3H-aldosterone binding to the type II (glucocorticoid) receptors. Table 2. Inhibition of 3H-Progesterone Binding to the Bovine Uteral Progesterone Receptors

[2] = molecular target: T1, Hippocampal Mineralocorticoid Receptors (Rattus norvegicus, UniProt P22199); assay: Inhibition of 3H-aldosterone binding, brain cytosol; parameters: species or system rats; details: competitor 10^-6M; 3 nM 3H-aldosterone, RU28362 0.5 µM
T1 construct: To isolate the mineralocorticoid receptor, brain cytosol fractions were prepared; from tissue; host or cells: rat brain (hippocampal) cytosol
T1 sequence (P22199 1-981): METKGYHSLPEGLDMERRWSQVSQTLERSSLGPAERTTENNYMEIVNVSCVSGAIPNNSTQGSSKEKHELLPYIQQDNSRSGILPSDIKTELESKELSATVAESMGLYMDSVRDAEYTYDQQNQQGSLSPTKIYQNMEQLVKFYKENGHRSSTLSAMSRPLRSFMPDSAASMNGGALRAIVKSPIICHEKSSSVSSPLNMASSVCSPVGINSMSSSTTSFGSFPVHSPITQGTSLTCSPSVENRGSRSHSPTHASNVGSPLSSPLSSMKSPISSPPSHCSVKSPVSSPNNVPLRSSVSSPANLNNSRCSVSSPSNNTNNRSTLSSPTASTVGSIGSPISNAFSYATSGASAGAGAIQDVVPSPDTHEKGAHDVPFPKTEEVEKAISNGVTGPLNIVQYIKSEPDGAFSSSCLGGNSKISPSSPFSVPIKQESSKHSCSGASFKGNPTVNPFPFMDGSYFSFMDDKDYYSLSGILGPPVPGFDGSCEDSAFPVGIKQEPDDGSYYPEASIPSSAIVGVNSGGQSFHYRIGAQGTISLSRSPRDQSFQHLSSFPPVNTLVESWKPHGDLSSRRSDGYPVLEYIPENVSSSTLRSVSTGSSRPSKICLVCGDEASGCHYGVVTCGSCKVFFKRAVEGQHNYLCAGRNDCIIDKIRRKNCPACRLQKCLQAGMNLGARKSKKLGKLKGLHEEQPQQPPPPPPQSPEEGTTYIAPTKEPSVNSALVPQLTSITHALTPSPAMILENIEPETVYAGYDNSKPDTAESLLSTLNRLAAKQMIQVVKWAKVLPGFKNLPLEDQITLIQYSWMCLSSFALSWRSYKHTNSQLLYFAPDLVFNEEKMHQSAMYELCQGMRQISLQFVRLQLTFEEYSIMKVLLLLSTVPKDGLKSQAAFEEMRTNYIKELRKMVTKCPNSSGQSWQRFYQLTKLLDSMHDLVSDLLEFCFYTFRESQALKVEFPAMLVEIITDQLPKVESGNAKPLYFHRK
Protocol: Various hormonal activities of representative neuroactive steroids were further studied through testing their potential estrogenic, mineralocorticoid and glucocorticoid activities. These activities were analyzed by monitoring the ability of the compounds to inhibit binding of the steroid hormones to their respective hormone receptors.
In Table 3, rats were adrenalectomized 3 days prior to sacrifice. […] Table 2. Inhibition of 3H-Progesterone Binding to the Bovine Uteral Progesterone Receptors
Table 3. Inhibition of 3H-Aldosterone Binding to Hippocampal Mineralocorticoid Receptors

[3] = molecular target: T2, Bovine Uteral Estrogen Receptors (Bos taurus, UniProt P49884); assay: Inhibition of 3H-estradiol binding, uteri cytosol; details: competitor 10^-6M; 3H-estradiol 0.15 nM
T2 construct: from tissue; host or cells: bovine uteri cytosol
T2 sequence (P49884 1-596): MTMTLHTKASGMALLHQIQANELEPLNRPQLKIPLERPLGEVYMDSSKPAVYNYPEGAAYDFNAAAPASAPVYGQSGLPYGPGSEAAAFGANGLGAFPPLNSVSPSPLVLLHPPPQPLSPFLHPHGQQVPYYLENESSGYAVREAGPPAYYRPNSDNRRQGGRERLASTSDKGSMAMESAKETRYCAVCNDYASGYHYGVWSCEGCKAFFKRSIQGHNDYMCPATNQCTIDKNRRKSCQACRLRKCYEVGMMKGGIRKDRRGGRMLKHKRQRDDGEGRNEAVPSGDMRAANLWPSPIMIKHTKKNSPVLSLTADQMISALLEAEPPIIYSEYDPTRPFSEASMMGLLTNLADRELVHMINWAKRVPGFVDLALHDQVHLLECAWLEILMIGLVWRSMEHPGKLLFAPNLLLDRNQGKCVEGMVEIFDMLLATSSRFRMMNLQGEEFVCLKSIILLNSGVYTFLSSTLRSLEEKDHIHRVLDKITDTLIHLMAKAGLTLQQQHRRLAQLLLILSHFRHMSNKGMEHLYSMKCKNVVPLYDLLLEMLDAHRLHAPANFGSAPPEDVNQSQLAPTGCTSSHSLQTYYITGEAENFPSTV

[4] = test system: metrazol induced convulsions; details: convulsant i.v.; data from Worms et al. 1982; cited from earlier work
tonic seizure = details: data from Worms et al. 1982; cited from earlier work
(+)bicuculline = details: convulsant i.v.; data from Worms et al. 1982; cited from earlier work
picrotoxin = details: convulsant i.v.; data from Worms et al. 1982; cited from earlier work
strychnine = details: convulsant i.v.; data from Worms et al. 1982; cited from earlier work

Compound	% of Inhibition [1] [%]	% of Inhibition [2] [%]	% of Inhibition [3] [%]	ED50 MTZ [4] [mg/kg]	ED50 MES (tonic seizure) [mg/kg]	ED50 BIC ((+)bicuculline) [mg/kg]	ED50 PICRO (picrotoxin) [mg/kg]	ED50 STR (strychnine) [mg/kg]
5α-pregnan-3β,20-trimethyl-3α,20-diol	8	0	0	–	–	–	–	–
NC(=O)CCC/N=C(\c1ccc(Cl)cc1)c1cc(F)ccc1O [Progabide]	–	–	–	30	75	30	105	75
